From patent publication US20050282755A1, “Compositions having antimicrobial activity and uses thereof” (priority 2004, published 2005)
In brackets after ≈: the same amount, converted by molar mass. Non-standard residues stand in square brackets, D forms with d. Residues, ends and D or L forms follow the SMILES beside them. *: point of attachment. Lauroyl = CCCCCCCCCCCC(=O)*

Legend:
[1] = tested on: Staphylococcus aureus ATCC 29213; details: ATCC 29213, pH 7.4
[2] = tested on: Pseudomonas aeruginosa ATCC 27853; assay: MIC, NCCLS M7-A6 broth microdilution (Table 9, no superscript); assay type: cell-based; details: ATCC 27853
Procedure, shortened: (§1)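 Broth microdilution in cation-adjusted Mueller Hinton broth with log-phase inoculum at 5×10^5 to 1×10^6 CFU/mL, incubated overnight at 37° C. MIC was the lowest peptide concentration showing no visible turbidity versus the no-peptide control.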

[3] = tested on: Escherichia coli ATCC 25922; assay: as above; assay type: cell-based; details: ATCC 25922
Procedure, shortened: as §1

[4] = tested on: Staphylococcus epidermidis ATCC 12228; assay: as above; assay type: cell-based; details: ATCC 12228
Procedure, shortened: as §1

[5] = tested on: Propionibacterium acnes ATCC 6919; assay type: cell-based
Description: A second method that was used to determine the MIC in P. acnes for selected antimicrobial agents was a non-standard broth microdilution method that used an assay buffer composed of reinforced Clostridial broth. Briefly, a log-phase bacterial culture of P. acnes was used to inoculate wells of a 96-well plate so that the final inoculum for each well contained 5×10^5 to 1×10^6 CFU/milliliter. […] Plates were incubated for 48-72 hours at 37° C. in a GasPak anaerobic chamber. The lowest concentration of peptide that contained no visible growth as evidenced by a lack of turbidity when compared to the control (no peptide) was determined as the MIC. MIC values that utilized this method of MIC determination are indicated in Table 9 with a subscript letter “d.”

Salmonella dublin (Lane) = details: pH 7.4
[6] = tested on: Candida albicans ATCC 18804; assay: MIC in yeasts, NCCLS M27-A2 broth microdilution, RPMI 1640 (Table 9, letter e); assay type: cell-based; details: ATCC 18804
Procedure, shortened: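 Broth microdilution per NCCLS M27-A2 in RPMI 1640 with glutamine and phenol red, final inoculum 0.5×10^3–2.5×10^3 CFU/milliliter. Incubated 24 to 48 hours at 37° C; MIC is the lowest peptide concentration with no visible growth.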

| Structure (SMILES) | MIC S. aureus [1] | MIC P. aeruginosa [2] | MIC E. coli [3] | MIC S. epidermidis [4] | MIC P. acnes [5] | MIC S. dublin (Salmonella dublin (Lane)) | MIC C. albicans [6] |
| --- | --- | --- | --- | --- | --- | --- | --- |
| CSCC[C@H](NC(=O)[C@H](Cc1ccccc1)NC(=O)[C@H](CC(N)=O)NC(=O)[C@H](CCCNC(=N)N)NC(=O)[C@H](CO)NC(=O)[C@H](Cc1c[nH]c2ccccc12)NC(=O)[C@H](CC(=O)O)NC(=O)[C@H](CCCNC(=N)N)NC(=O)[C@H](Cc1c[nH]c2ccccc12)NC(=O)[C@H](CCCNC(=N)N)NC(=O)[C@H](CO)NC(=O)[C@H](CCCNC(=N)N)NC(=O)CNC(=O)[C@@H](NC(=O)[C@H](CCCNC(=N)N)NC(=O)[C@H](CO)NC(=O)[C@@H](NC(=O)[C@H](CCCNC(=N)N)NC(=O)[C@@H](NC(C)=O)[C@@H](C)O)C(C)C)[C@@H](C)O)C(=O)N[C@@H](CCCNC(=N)N)C(=O)N[C@@H](C)C(=O)N[C@@H](C)C(=O)N[C@@H](CCCN)C(=O)N[C@@H](CCCN)C(=O)N[C@@H](CCCN)C(=O)N[C@@H](CCCN)C(=O)N[C@@H](CCCN)C(=O)N[C@@H](CCCN)C(=O)N[C@@H](CCCN)C(=O)N[C@@H](CCCN)C(N)=O [Peptide 3, Ac-TRVSRTGRSRWRDWSRNFMRAAOOOOOOOO-NH2] | 6b ug/mL | >64 µg/mL | >64 µg/mL | >64 µg/mL | 6 µg·days/mL | 6b ug/mL |  |
| CSCC[C@@H](NC(=O)[C@@H](Cc1ccccc1)NC(=O)[C@@H](CC(N)=O)NC(=O)[C@@H](CCCNC(=N)N)NC(=O)[C@@H](CO)NC(=O)[C@@H](Cc1c[nH]c2ccccc12)NC(=O)[C@@H](CC(=O)O)NC(=O)[C@@H](CCCNC(=N)N)NC(=O)[C@@H](Cc1c[nH]c2ccccc12)NC(=O)[C@@H](CCCNC(=N)N)NC(=O)[C@@H](CO)NC(=O)[C@@H](CCCNC(=N)N)NC(=O)CNC(=O)[C@H](NC(=O)[C@@H](CCCNC(=N)N)NC(=O)[C@@H](CO)NC(=O)[C@H](NC(=O)[C@@H](CCCNC(=N)N)NC(=O)[C@H](NC(C)=O)[C@H](C)O)C(C)C)[C@H](C)O)C(=O)N[C@H](CCCNC(=N)N)C(=O)N[C@H](C)C(=O)N[C@H](C)C(=O)N[C@H](CCCCN)C(=O)N[C@H](CCCCN)C(=O)N[C@H](CCCCN)C(=O)N[C@H](CCCCN)C(=O)N[C@H](CCCCN)C(=O)N[C@H](CCCCN)C(=O)N[C@H](CCCCN)C(=O)N[C@H](CCCCN)C(N)=O [Peptide 31, Ac-trvsrtgrsrwrdwsrnfmraakkkkkkkk-NH2] | 3b ug/mL | >64 µg/mL | >64 µg/mL | 8 µg/mL (≈ 2.09 µM) | 12.5 µg·days/mL | 6b ug/mL |  |
| CSCC[C@@H](NC(=O)[C@@H](Cc1ccccc1)NC(=O)[C@@H](CC(N)=O)NC(=O)[C@@H](CCCNC(=N)N)NC(=O)[C@@H](CO)NC(=O)[C@@H](Cc1c[nH]c2ccccc12)NC(=O)[C@@H](CC(=O)O)NC(=O)[C@@H](CCCNC(=N)N)NC(=O)[C@@H](Cc1c[nH]c2ccccc12)NC(=O)[C@@H](CCCNC(=N)N)NC(=O)[C@@H](CO)NC(=O)[C@@H](CCCNC(=N)N)NC(=O)CNC(=O)[C@H](NC(=O)[C@@H](CCCNC(=N)N)NC(=O)[C@@H](CO)NC(=O)[C@H](NC(=O)[C@@H](CCCNC(=N)N)NC(=O)[C@H](NC(=O)[C@@H](C)NC(=O)[C@@H](C)NC(=O)[C@@H](CCCCN)NC(=O)[C@@H](CCCCN)NC(=O)[C@@H](CCCCN)NC(=O)[C@@H](CCCCN)NC(=O)[C@@H](CCCCN)NC(=O)[C@@H](CCCCN)NC(=O)[C@@H](CCCCN)NC(=O)[C@H](N)CCCCN)[C@H](C)O)C(C)C)[C@H](C)O)C(=O)N[C@H](CCCNC(=N)N)C(N)=O [Peptide 36, H2N-kkkkkkkkaatrvsrtgrsrwrdwsrnfmr-NH2] (H-[dK][dK][dK][dK][dK][dK][dK][dK][dA][dA][dT][dR][dV][dS][dR][dT]G[dR][dS][dR][dW][dR][dD][dW][dS][dR][dN][dF][dM][dR]-NH2) | 6b ug/mL |  |  |  | 25 µg·days/mL | 6b ug/mL |  |
| CSCC[C@H](NC(=O)[C@H](Cc1ccccc1)NC(=O)[C@H](CC(N)=O)NC(=O)[C@H](CCCNC(=N)N)NC(=O)[C@H](C)NC(=O)[C@H](Cc1c[nH]c2ccccc12)NC(=O)[C@H](CC(=O)O)NC(=O)[C@H](CCCNC(=N)N)NC(=O)[C@H](Cc1c[nH]c2ccccc12)NC(=O)[C@H](CCCNC(=N)N)NC(=O)[C@H](CO)NC(=O)[C@H](CCCNC(=N)N)NC(=O)CNC(=O)[C@@H](NC(=O)[C@H](CCCNC(=N)N)NC(=O)[C@H](C)NC(=O)[C@@H](NC(=O)[C@H](CCCNC(=N)N)NC(=O)[C@@H](NC(C)=O)[C@@H](C)O)C(C)C)[C@@H](C)O)C(=O)N[C@@H](CCCNC(=N)N)C(N)=O [Peptide 37] (Ac-TRVARTGRSRWRDWARNFMR-NH2) | 25b ug/mL | >64 µg/mL | >64 µg/mL | >64 µg/mL | 100 µg·days/mL | 25b ug/mL | 64e ug/mL |
| CCCCCCCCCCCC(=O)NCCCC[C@@H](NC(=O)[C@@H](CCCNC(=N)N)NC(=O)[C@@H](CCSC)NC(=O)[C@@H](Cc1ccccc1)NC(=O)[C@@H](CC(N)=O)NC(=O)[C@@H](CCCNC(=N)N)NC(=O)[C@@H](CO)NC(=O)[C@@H](Cc1c[nH]c2ccccc12)NC(=O)[C@@H](CC(=O)O)NC(=O)[C@@H](CCCNC(=N)N)NC(=O)[C@@H](Cc1c[nH]c2ccccc12)NC(=O)[C@@H](CCCNC(=N)N)NC(=O)[C@@H](CO)NC(=O)[C@@H](CCCNC(=N)N)NC(=O)CNC(=O)[C@H](NC(=O)[C@@H](CCCNC(=N)N)NC(=O)[C@@H](CO)NC(=O)[C@H](NC(=O)[C@@H](CCCNC(=N)N)NC(=O)[C@H](NC(C)=O)[C@H](C)O)C(C)C)[C@H](C)O)C(N)=O [Peptide 65] (Ac-[dT][dR][dV][dS][dR][dT]G[dR][dS][dR][dW][dR][dD][dW][dS][dR][dN][dF][dM][dR][dK](Lauroyl)-NH2) | 3b ug/mL |  |  |  | 25 µg·days/mL | 6b ug/mL |  |
| CCCCCCCCCCCC(=O)NCCCC[C@H](NC(=O)[C@H](CCCNC(=N)N)NC(=O)[C@H](CCSC)NC(=O)[C@H](Cc1ccccc1)NC(=O)[C@H](CC(N)=O)NC(=O)[C@H](CCCNC(=N)N)NC(=O)[C@H](CO)NC(=O)[C@H](Cc1c[nH]c2ccccc12)NC(=O)[C@H](CC(=O)O)NC(=O)[C@H](CCCNC(=N)N)NC(=O)[C@H](Cc1c[nH]c2ccccc12)NC(=O)[C@H](CCCNC(=N)N)NC(=O)[C@H](CO)NC(=O)[C@H](CCCNC(=N)N)NC(=O)CNC(=O)[C@@H](NC(=O)[C@H](CCCNC(=N)N)NC(=O)[C@H](CO)NC(=O)[C@@H](NC(=O)[C@H](CCCNC(=N)N)NC(=O)[C@@H](NC(=O)CCCCCCCCCCC)[C@@H](C)O)C(C)C)[C@@H](C)O)C(N)=O [Peptide 66] (Lauroyl-TRVSRTGRSRWRDWSRNFMRK(Lauroyl)-NH2) | 25b ug/mL |  |  |  | 100 µg·days/mL | 25b ug/mL |  |
| CCCCCCCCCCCC(=O)N[C@@H](CCCNC(=N)N)C(=O)N[C@@H](CO)C(=O)N[C@@H](CCCNC(=N)N)C(=O)N[C@@H](Cc1c[nH]c2ccccc12)C(=O)N[C@@H](CCCNC(=N)N)C(=O)N[C@@H](CC(=O)O)C(=O)N[C@H](C(=O)N[C@@H](C)C(=O)N[C@@H](CCCNC(=N)N)C(=O)N[C@@H](CC(N)=O)C(=O)N[C@@H](Cc1ccccc1)C(=O)N[C@@H](CCSC)C(=O)N[C@@H](CCCNC(=N)N)C(N)=O)C(C)C [Peptide 88, Lauryl-RSRWRDVARNFMR-NH2] (Lauroyl-RSRWRDVARNFMR-NH2) | 3b ug/mL |  |  |  | 25 µg·days/mL | 3b ug/mL | 32e ug/mL |
| CSCC[C@@H](NC(=O)[C@@H](Cc1ccccc1)NC(=O)[C@@H](CC(N)=O)NC(=O)[C@@H](CCCNC(=N)N)NC(=O)[C@@H](CO)NC(=O)[C@@H](Cc1c[nH]c2ccccc12)NC(=O)[C@@H](CC(=O)O)NC(=O)[C@@H](CCCNC(=N)N)NC(=O)[C@@H](Cc1c[nH]c2ccccc12)NC(=O)[C@@H](CCCNC(=N)N)NC(=O)[C@@H](CO)NC(=O)[C@@H](CCCNC(=N)N)NC(C)=O)C(=O)N[C@H](CCCNC(=N)N)C(N)=O [Peptide 95, Ac-rsrwrdwsrnfmr-NH2] (Ac-[dR][dS][dR][dW][dR][dD][dW][dS][dR][dN][dF][dM][dR]-NH2) | 12.5b ug/mL |  |  |  | 12.5 µg·days/mL | 6b ug/mL | 16e ug/mL |
